Source: publication PMC9217967, “Simultaneous production and sustainable eutectic mixture based purification of narringinase with Bacillus amyloliquefaciens by valorization of tofu wastewater” (Scientific Reports, 2022)

Test system: T1, naringinase
T1 construct: native enzyme from culture, NADES extractive fermentation, Sephadex G-15 and DEAE-Sepharose; a beta-glucosidase activity (prunin to naringenin) may be included
Assay: Lineweaver-Burk; modified Davis assay, residual naringin at […] nm
Type: biochemical, Bacillus amyloliquefaciens
Conditions: general assay: acetate buffer pH 4.2, 333 K, 60 min; printed unit is not a concentration; printed kcat/Km fits 1.5 × 10^-3 M

SMILES: C[C@@H]1O[C@@H](O[C@H]2[C@H](Oc3cc(O)c4c(c3)O[C@H](c3ccc(O)cc3)CC4=O)O[C@H](CO)[C@@H](O)[C@@H]2O)[C@H](O)[C@H](O)[C@H]1O [Naringin]
- Km: 1500 µM
